Where a name gives a salt, the structure may show the parent alone.
Tests used:
mice [1] = assay: Antitussive test of Naringenin, spray by high concentration ammonia (Example 30); type: in vivo; conditions: for R Value: EDT50 of the treatment / EDT50 of the control x 100%; for EDT50: mice, oral, dose 0.2 (mg/20g), spray one hour later
Text: 1. Animal: 120 healthy male mice weighing 19.5-22.1g was grouped into 8 groups random after labeled, which was selected from 130 male mice weighing 19.3-22.6g. Every group was 15 mice. Eight group were set including negative control group, positive control group, high dose group of Naringenin, middle dose group of Naringenin, low dose group of Naringenin, high dose group of sodium salt of Naringenin, middle dose group of sodium salt of Naringenin, low dose group of sodium salt of Naringenin.
• 1) Blank control group: physiological saline, 0.9% NaCl; • 2) Positive control group: 30mg Dextromethorphan Hydrobromide was dissolve into 20 ml physiological saline and the sample concentration was 1.5 mg/ml to obtain the solution for positive control. • 3) low dose group of Naringenin: weighting out the appropriate amount of Naringenin and dissolving it in physiological saline, then the sample concentration was 0.5 mg/ml. • 4) middle dose group of Naringenin: weighting out the appropriate amount of Naringenin and dissolving it in physiological saline, then the sample concentration was 1.5mg/ml. • 5) high dose group of Naringenin: weighting out the appropriate amount of Naringenin and dissolving it in physiological saline, then the sample concentration was 4.5 mg/ml. • 6) low dose group of sodium salt of Naringenin: weighting out the appropriate amount of sodium salt of Naringenin and dissolving it in physiological saline, then the sample concentration was 0.5 mg/ml. • 7) middle dose group of sodium salt of Naringenin: weighting out the appropriate amount of sodium salt of Naringenin and dissolving it in physiological saline, then the sample concentration was 1.5 mg/ml. • 8) high dose group of sodium salt of Naringenin: weighting out the appropriate amount of sodium salt of Naringenin and dissolving it in physiological saline, then the sample concentration was 4.5 mg/ml.
Animals were oral administered, and were sprayed one hour later. After the spray took out the animals and observed the tussive action. Observed the time of tussis in one minutes, if it appeared typical tussis three times in one minutes(shrinking the abdomen muscle or shrinking chest, puffing mouth at the same time, sometimes appearing tussive sound), we consider it "appearing tussis", otherwise "no tussis".
We calculated the spraying time that half of mice were tusisive by sequential method. And calculated the R, the drug was provided with effect of relieve a cough if R>130%. The drug was provided with remarkable effect of relieve a cough if R>150%. Underside is expressions: R=(EDT50 of the treatment)/(EDT50 of the control)× 100% [formula] EDT50=log^-1c/n ('n' is the number of animal, 'c' is the sum of 'rx' value, 'r' is the number of animal in every group, 'x' is the logarithm of dose(namely spray time).)

mice [2] = assay: Dispel phlegm test of Naringenin, Phenol Red excretion in trachea (Example 31); type: in vivo; conditions: for Dispel phlegm ratio: group given drug / blank control group x 100%; for Excretion quantity of Phenol Red / Rectified excretion quantity of Phenol Red: mice, oral, X±S; for Rectified excretion quantity of Phenol Red: excretion quantity / weight of animal
Text: • 1. Animal: 80 healthy female mice weighing 18.5-22.0g was grouped into 8 groups random after labeled, which was selected from 90 female mice weighing 18.0-22.1g. Every group was 10 mice. Eight groups were set including negative control group, positive control group, high dose group of Naringenin, middle dose group of Naringenin, low dose group of Naringenin, high dose group of sodium salt of Naringenin, middle dose group of sodium salt of Naringenin, low dose group of sodium salt of Naringenin. […] Sample source and preparation • 1) Blank control group: physiological saline, 0.9% NaCl; • 2) Positive control group: 0.2g Tankejing was dissolve into 10 ml 0.9% NaCl and the sample concentration was 20 mg/ml to obtain the solution for positive control. • 3) low dose group of Naringenin: 0.5 mg/ml solution of Naringenin was prepared by weighting out the appropriate amount of 5 mg Naringenin and dissolving it by ultrasonication in 10 ml physiological saline. • 4) middle dose group of Naringenin: 1.5 mg/ml solution of Naringenin was prepared by weighting out the appropriate amount of 15 mg Naringenin and dissolving it by ultrasonication in 10 ml physiological saline. • 5) high dose group of Naringenin: 4.5 mg/ml solution of Naringenin was prepared by weighting out the appropriate amount of 45 mg Naringenin and dissolving it by ultrasonication in 10 ml physiological saline. • 6) low dose group of sodium salt of Naringenin: 0.5 mg/ml solution of sodium salt of Naringenin was prepared by weighting out the appropriate amount of 5 mg sodium salt of Naringenin and dissolving it by ultrasonication in 10 ml physiological saline. • 7) middle dose group of sodium salt of Naringenin: 1.5 mg/ml solution of sodium salt of Naringenin was prepared by weighting out the appropriate amount of 15 mg sodium salt of Naringenin and dissolving it by ultrasonication in 10 ml physiological saline. • 8) high dose group of sodium salt of Naringenin: 4.5 mg/ml solution of sodium salt of Naringenin was prepared by weighting out the appropriate amount of 45 mg sodium salt of Naringenin and dissolving it by ultrasonication in 10 ml physiological saline. • 3. Experimental Method: • 1) preparations of Phenol Red calibration standard: 12.5 ng/ml solution of Phenol Red was prepared by weighting out the appropriate amount of Phenol Red and dissolving it by ultrasonication in 5% NaHCO3. The series solution including 6.25ng/ml, 3.125ng/ml, 1.5625 ng/ml, 0.7813 ng/ml, 0.3906 ng/ml, 0.1953 ng/ml, 0.0977 ng/ml, 0.0488 ng/ml was prepared by diluting, which was detected by ultraviolet spectrometer. The calibration curve was calculated by concentration of Phenol Red as y-axis and OD value as x-axis. And the excretion account of Phenol Red in mice was quantitated by calibration curve. • 2) Animals were fasted for 12 hr before dosing. • 3) Animals were oral administered with labeled number, each animal was administered with 3 min and each group was accomplished in 30 min. • 4) After administered 30 min, every animal was injected 2 ml 5% Phenol Red solution via celiac injection. The time of every animal was 3 min. • 5) Every animal was executed with 3 min interval after celiac injection 30 min, and animal trachea was peeled off with forceps after neck skin sniped, which was riveted on operating table. • 6) plasma and Phenol Red adhered to trachea ektexine was sweeped by 0.9% NaCl solution with an injector. And filter paper was used to blot up the solution. • 7) Scissors cut down the animal trachea including thyroid cartilage and trachea back-end. • 8) The trachea was set in test tube with 1.5 ml 5% NaHCO3. • 9) The experiment of every animal was completed in 3 min. […]

Row | SMILES | R Value (mice [1]; sample concentration 0.5 mg/ml) [%] | R Value (mice [1]; sample concentration 1.5 mg/ml) [%] | R Value (mice [1]; sample concentration 4.5 mg/ml) [%] | EDT50 (mice [1]; sample concentration 0.5 mg/ml) [s] | EDT50 (mice [1]; sample concentration 1.5 mg/ml) [s] | EDT50 (mice [1]; sample concentration 4.5 mg/ml) [s] | Effect of relieving cough (mice [1]; sample concentration 0.5 mg/ml) | Effect of relieving cough (mice [1]; sample concentration 1.5 mg/ml) | Effect of relieving cough (mice [1]; sample concentration 4.5 mg/ml) | Dispel phlegm ratio (mice [2]; 5 mg/kg) [%] | Dispel phlegm ratio (mice [2]; 15 mg/kg) [%] | Dispel phlegm ratio (mice [2]; 45 mg/kg) [%] | Excretion quantity of Phenol Red (mice [2]; 5 mg/kg) [ng] | Rectified excretion quantity of Phenol Red (mice [2]; 5 mg/kg) [ng/kg] | Excretion quantity of Phenol Red (mice [2]; 15 mg/kg) [ng] | Rectified excretion quantity of Phenol Red (mice [2]; 15 mg/kg) [ng/kg] | Excretion quantity of Phenol Red (mice [2]; 45 mg/kg) [ng] | Rectified excretion quantity of Phenol Red (mice [2]; 45 mg/kg) [ng/kg] | further results
1 | O=C1C[C@@H](c2ccc(O)cc2)Oc2cc(O)cc(O)c21 [sodium salt of Naringenin] | 142.3 | 178.6 | 189.1 | 55.35 | 69.48 | 73.56 | effect (the drug was provided with effect of relieve a cough if R>130%) | remarkably effect (The drug was provided with remarkable effect of relieve a cough if R>150%) | remarkably effect (The drug was provided with remarkable effect of relieve a cough if R>150%) | 148.72 | 162.38 | 224.93 | 1.3029 ± 0.3069 | 69.4942 ± 16.3724 | 1.4225 ± 0.7361 | 75.8773 ± 39.2651 | 1.9705 ± 0.6898 | 105.1057 ± 36.7945 | 
2 | O=C1CC(c2ccc(O)cc2)Oc2cc(O)cc(O)c21 (stereo not drawn) [Naringenin, 4', 5, 7 -trihydroxyflavanone] | 131.85 | 169.85 | 171.23 | 51.29 | 66.07 | 66.61 | effect (the drug was provided with effect of relieve a cough if R>130%) | remarkably effect (The drug was provided with remarkable effect of relieve a cough if R>150%) | remarkably effect (The drug was provided with remarkable effect of relieve a cough if R>150%) | 146.13 | 159.97 | 219.85 | 1.2757 ± 0.4020 | 68.2832 ± 23.6102 | 1.3523 ± 0.9303 | 74.7504 ± 57.2020 | 1.9257 ± 0.6713 | 102.7325 ± 41.0313 | time of appearing tussis (mice [1]; compared with Dextromethorphan Hydrobromide (positive control group)): statistical significance prolonging the time; dispel phlegm effect (mice [2]; high dose group compared to positive control group of Tankejing): statistical better than Tankejing; exudates increase of mice trachea (mice [2]; three doses (low, middle, high), versus negative control group): statistical significance stimulate the exudates increase of mice trachea

— patent EP1591123A1, “USES OF NARINGENIN, NARINGIN AND SALTS THEREOF AS EXPECTORANTS IN THE TREATMENT OF COUGH, AND COMPOSITIONS THEREOF” (Su, Wei-wei, priority 2003, dated 2004)
